# Experimental data taken from PMC2777746 (ACS chemical biology, 2009).
# What was measured:
# Solubility in water = type: physicochemical
# [1] = test system: C. albicans group I intron precursor; assay: Inhibition of C. albicans group I intron precursor self-splicing; type: biochemical, Candida albicans; settings: read-out: IC50 for inhibition of precursor self-splicing; 2 mM Mg2+ (H2Mg buffer: 50 mM Na HEPES pH 7.5, 135 mM KCl), 1 mM nucleotide bulk yeast tRNA competitor, 100 µM GMP; four parameter logistic fit
IC50 [1] [µM],SMILES,solubility in water (Solubility in water)
,"NCCc1c[nH]c2ccccc12 [Compound 4, tryptamine]",not soluble in water
200 ± 35,"N=C(N)c1ccc(OCCCCCOc2ccc(C(=N)N)cc2)cc1 [Pentamidine, pentamidine]",
> 5000,"c1ccc(Cn2cc(CN(Cc3cn(Cc4ccccc4)nn3)Cc3cn(Cc4ccccc4)nn3)nn2)cc1 [TBTA, tris(benzyltriazolylmethyl)amine]",
